Data on 39 molecules can be found in ChEMBL document CHEMBL1155741, “Ellagitannins and hexahydroxydiphenoyl esters as inhibitors of vertebrate squalene epoxidase” (J Nat Prod, 2001).

For test [1], the target named is T1, Squalene monooxygenase (Rattus norvegicus, UniProt P52020). The test is described as follows: Inhibition of C-terminal hexahistidine-tagged rat recombinant squalene epoxidase without N-terminal putative membrane domain expressed in Escherichia coli.
The target of test [2] is T1, Squalene monooxygenase. The test is described as follows: Inhibition of rat squalene epoxidase.
In another test the target is Squalene epoxidase (Sus scrofa, UniProt A7L861). Description: Inhibition of pig squalene epoxidase.
Sequence of Squalene epoxidase (A7L861 whole entry): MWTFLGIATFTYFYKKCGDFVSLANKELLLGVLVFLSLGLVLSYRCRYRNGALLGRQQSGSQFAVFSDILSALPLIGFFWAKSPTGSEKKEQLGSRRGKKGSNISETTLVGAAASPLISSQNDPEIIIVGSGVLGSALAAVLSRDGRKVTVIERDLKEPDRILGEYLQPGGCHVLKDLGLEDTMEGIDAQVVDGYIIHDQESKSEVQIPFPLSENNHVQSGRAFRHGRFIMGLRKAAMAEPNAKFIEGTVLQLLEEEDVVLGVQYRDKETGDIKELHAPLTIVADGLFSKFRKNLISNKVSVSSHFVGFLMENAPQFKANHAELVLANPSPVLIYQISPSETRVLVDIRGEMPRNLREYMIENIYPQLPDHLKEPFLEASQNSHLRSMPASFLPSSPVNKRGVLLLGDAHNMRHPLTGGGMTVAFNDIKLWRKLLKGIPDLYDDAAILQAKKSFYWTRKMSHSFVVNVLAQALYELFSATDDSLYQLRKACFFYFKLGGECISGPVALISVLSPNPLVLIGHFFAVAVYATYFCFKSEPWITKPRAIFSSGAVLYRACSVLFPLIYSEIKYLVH

T1 sequence (P52020 whole entry, the tested form may be a part): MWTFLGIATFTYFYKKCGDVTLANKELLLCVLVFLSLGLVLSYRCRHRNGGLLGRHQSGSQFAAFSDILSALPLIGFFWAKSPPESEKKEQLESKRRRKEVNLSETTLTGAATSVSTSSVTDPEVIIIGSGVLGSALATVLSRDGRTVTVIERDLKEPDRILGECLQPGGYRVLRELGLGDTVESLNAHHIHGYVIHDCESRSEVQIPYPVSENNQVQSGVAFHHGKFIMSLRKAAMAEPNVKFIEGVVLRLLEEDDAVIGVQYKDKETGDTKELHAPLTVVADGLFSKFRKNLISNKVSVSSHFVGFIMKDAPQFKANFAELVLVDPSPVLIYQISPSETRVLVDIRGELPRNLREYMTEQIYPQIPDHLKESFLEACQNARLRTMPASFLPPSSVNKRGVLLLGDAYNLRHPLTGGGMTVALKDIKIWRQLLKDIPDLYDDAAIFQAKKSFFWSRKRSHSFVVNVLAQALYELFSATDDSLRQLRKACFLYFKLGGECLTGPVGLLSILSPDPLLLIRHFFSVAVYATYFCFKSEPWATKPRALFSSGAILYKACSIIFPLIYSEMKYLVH

The IC50 is the point on the concentration scale where inhibition reaches its midpoint. In the case of `O=C1O[C@H]2[C@@H]3OC(=O)c4cc(Oc5c(C(=O)O)cc(O)c(O)c5O)c(O)c(O)c4-c4c(cc(O)c(O)c4O)C(=O)OC[C@H]2O[C@@H](OC(=O)c2cc(O)c(O)c(O)c2)[C@@H]3OC(=O)c2cc(O)c(O)c3c2[C@@H]2C1=CC(=O)[C@](O)(O3)C2(O)O` [MALLOTUSINIC ACID], at Squalene monooxygenase [1], the IC50 turned out to be 8 µM.

`CCCCOC(=O)c1cc(O)c(O)c(O)c1-c1c(C(=O)OCCCC)cc(O)c(O)c1O`: on Squalene monooxygenase [1], the half-maximal inhibitory concentration (IC50) was found to be 7.9 µM.

For `CCCCCCCCCCCCOC(=O)c1cc(O)c(O)c(O)c1-c1c(C(=O)OCCCCCCCCCCCC)cc(O)c(O)c1O`, the IC50 at Squalene monooxygenase [1] was 1.3 µM.

On to `O=C(OC[C@H]1O[C@@H](OC(=O)c2cc(O)c(O)c(O)c2)[C@H](OC(=O)c2cc(O)c(O)c(O)c2)[C@@H](OC(=O)c2cc(O)c(O)c(O)c2)[C@@H]1OC(=O)c1cc(O)c(O)c(O)c1Oc1cc2c(c(O)c1O)-c1c(cc(O)c(O)c1O)C(=O)O[C@H]1[C@H](OC(=O)c3cc(O)c(O)c(O)c3)[C@@H](OC(=O)c3cc(O)c(O)c(O)c3)[C@H](OC(=O)c3cc(O)c(O)c(O)c3)O[C@@H]1COC2=O)c1cc(O)c(O)c(O)c1` [PHYLLYRAEOIDIN], for which the IC50 on Squalene monooxygenase [1] was determined as 100 µM.

On to `O=C(O[C@@H]1O[C@@H]2COC(=O)c3cc(O)c(O)c(O)c3-c3c(cc(Oc4c(C(=O)O)cc(O)c(O)c4O)c(O)c3O)C(=O)O[C@H]([C@H]1O)[C@@H]2O)c1cc(O)c(O)c(O)c1` [MALLOTINIC ACID], for which the IC50 on Squalene monooxygenase [1] came to 8 µM.

In the case of `CCCCCCCCOC(=O)c1cc(O)c(O)c(O)c1-c1c(C(=O)OCCCCCCCC)cc(O)c(O)c1O`, at Squalene monooxygenase [1], the IC50 was 0.83 µM.

On Squalene monooxygenase [2], `O=C(OC[C@H]1O[C@@H](OC(=O)c2cc(O)c(O)c(O)c2)[C@H](OC(=O)c2cc(O)c(O)c(O)c2)[C@@H](O)[C@@H]1O)c1cc(O)c(O)c(O)c1` came in with an IC50 of 0.63 µM.

As to `CCCCCCOC(=O)c1cc(O)c(O)c(O)c1-c1c(C(=O)OCCCCCC)cc(O)c(O)c1O`, on Squalene monooxygenase [1], the IC50 worked out at 0.93 µM.

On to `O=C(OC[C@H]1O[C@@H](OC(=O)c2cc(O)c(O)c(O)c2)[C@H](OC(=O)c2cc(O)c(O)c(O)c2)[C@@H](OC(=O)c2cc(O)c(O)c(O)c2)[C@@H]1OC(=O)c1cc(O)c(O)c(O)c1)c1cc(O)c(O)c(O)c1` [PENTAGALLOYL GLUCOSE], for which the IC50 on Squalene monooxygenase [1] is 0.47 µM.

On Squalene monooxygenase [2], `O=C(O[C@@H]1Cc2c(O)cc(O)cc2O[C@@H]1c1cc(O)c(O)c(O)c1-c1c([C@H]2Oc3cc(O)cc(O)c3C[C@H]2OC(=O)c2cc(O)c(O)c(O)c2)cc(O)c(O)c1O)c1cc(O)c(O)c(O)c1` [THEASINENSIN A] displayed an IC50 of 0.13 µM.

Take `CCCCCCCCCCCCCCCCOC(=O)c1cc(O)c(O)c(O)c1-c1c(C(=O)OCCCCCCCCCCCCCCCC)cc(O)c(O)c1O`: the IC50 on Squalene monooxygenase [1] is 2.5 µM.

`CC(C)=CCC/C(C)=C/CC/C(C)=C/CC/C=C(\C)CC/C=C(\C)CCCNC1CC1` [TRISNORSQUALENE CYCLOPROPYLAMINE] had an IC50 on Squalene epoxidase of 2 µM.

As for `CCCCCCCCCCCCCCCCCCOC(=O)c1cc(O)c(O)c(O)c1-c1c(C(=O)OCCCCCCCCCCCCCCCCCC)cc(O)c(O)c1O`, the IC50 on Squalene monooxygenase [1] amounted to 47 µM.

For `CC(C)=CCC/C(C)=C/CC/C(C)=C/CC/C=C(\C)CC/C=C(\C)CCCO` [TRISNORSQUALENE ALCOHOL], the IC50 against Squalene epoxidase was 4 µM.

As to `O=C(O[C@@H]1O[C@@H]2COC(=O)c3cc(O)c(O)c(O)c3-c3c(O)c(O)c(O)c(Oc4cc(C(=O)O[C@@H]5O[C@@H]6COC(=O)c7cc(O)c(O)c(O)c7-c7c(cc(O)c(O)c7O)C(=O)O[C@H]6[C@@H]6OC(=O)c7cc(O)c(O)c(O)c7-c7cc(O)c(O)c(O)c7C(=O)O[C@@H]56)cc(O)c4O)c3C(=O)O[C@H]2[C@@H]2OC(=O)c3cc(O)c(O)c(O)c3-c3c(cc(O)c(O)c3O)C(=O)O[C@@H]12)c1cc(O)c(O)c(O)c1`, the IC50 on Squalene monooxygenase [1] worked out at 12 µM.

As to `O=C1OC[C@H]2O[C@@H](O)[C@H](O)[C@@H](O)[C@@H]2OC(=O)c2cc(O)c(O)c(O)c2-c2c(O)c(O)c3oc(=O)c4c(c(O)c(O)c5oc(=O)c2c3c54)-c2c1cc(O)c(O)c2O` [PUNICALIN], on Squalene monooxygenase [1], the IC50 came to 20 µM.

As to `O=C(O)c1cc(O)c(O)c(O)c1` [GALLIC ACID], the IC50 at Squalene monooxygenase [1] came to 73 µM.

For `CCOC(=O)c1cc(O)c(O)c(O)c1-c1c(C(=O)OCC)cc(O)c(O)c1O`, at Squalene monooxygenase [1], the IC50 turned out to be 13.3 µM.

As to `O=C1O[C@H]2[C@H](O)[C@@H](OC(=O)c3cc(O)c(O)c4c3[C@@H]3C1=CC(=O)C(O)(O)C3(O)O4)[C@H](OC(=O)c1cc(O)c(O)c(O)c1)O[C@@H]2CO` (some centres undefined) [FUROSIN], on Squalene monooxygenase [1], the IC50 came to 10 µM.

As for `O=C(O[C@@H]1[C@@H](c2c(O)cc(O)c3c2O[C@H](c2ccc(O)c(O)c2)[C@H](OC(=O)c2cc(O)c(O)c(O)c2)C3)c2c(O)cc(O)cc2O[C@@H]1c1ccc(O)c(O)c1)c1cc(O)c(O)c(O)c1`, the IC50 against Squalene monooxygenase [2] is 0.54 µM.

For the molecule `CCOC(=O)c1cc(O)c(O)c(O)c1` [ETHYLGALLATE], the IC50 at Squalene monooxygenase [1] was 4.2 µM.

As for `O=C(O[C@@H]1O[C@@H]2COC(=O)c3cc(O)c(O)c(O)c3-c3c(cc(O)c(O)c3O)C(=O)O[C@H]2[C@H](OC(=O)c2cc(O)c(O)c(O)c2)[C@H]1OC(=O)c1cc(O)c(O)c(O)c1)c1cc(O)c(O)c(O)c1` [EUGENIIN], the IC50 at Squalene monooxygenase [1] is 1.6 µM.

Turning to `O=C(O[C@@H]1COC(=O)c2cc(O)c(O)c(O)c2-c2c(cc(O)c(O)c2O)C(=O)O[C@H]1[C@@H]1OC(=O)c2cc(O)c(O)c(O)c2-c2c(O)c(O)c(O)c3c2C(=O)O[C@H]1[C@@H]3O)c1cc(O)c(O)c(O)c1` [CASUARININ], the IC50 on Squalene monooxygenase [1] worked out at 34 µM.

Consider `O=C(O[C@@H]1O[C@@H]2COC(=O)c3cc(O)c(O)c(O)c3-c3c(cc(O)c(O)c3O)C(=O)O[C@H]([C@H]1O)[C@@H]2O)c1cc(O)c(O)c(O)c1` [CORILAGIN], for which the IC50 on Squalene monooxygenase [1] came to 4 µM.

Consider `O=c1oc2c(O)c(O)cc3c(=O)oc4c(O)c(O)cc1c4c23` [ELLAGIC ACID], for which the IC50 on Squalene monooxygenase [1] is 2 µM.

`O=C1O[C@H]2[C@H](O)[C@@H](CO)OC(O)[C@@H]2OC(=O)c2cc(O)c(O)c(O)c2-c2c1cc(O)c(O)c2O` (some centres undefined): the IC50 at Squalene monooxygenase [1] came to 32 µM.

As to `COC(=O)c1cc(O)c(O)c(O)c1-c1c(C(=O)OC)cc(O)c(O)c1O`, at Squalene monooxygenase [1], the IC50 is 16.4 µM.

For the molecule `CCCCCCCCCCCCCCCCOC(=O)c1cc(O)c(O)c(O)c1` [HEXADECYL GALLATE], the IC50 at Squalene monooxygenase [1] stood at 0.59 µM.

Consider `O=C1OC[C@H]2OC(O)[C@@H]3OC(=O)c4cc(O)c(O)c(O)c4-c4c(cc(O)c(O)c4O)C(=O)O[C@H]3[C@@H]2OC(=O)c2cc(O)c(O)c(O)c2-c2c1cc(O)c(O)c2O` (some centres undefined) [PEDUNCULAGIN], for which the IC50 on Squalene monooxygenase [1] was 2 µM.

`CC(C)=CCC/C(C)=C/CC/C(C)=C/CC/C=C(\C)CC/C=C(\C)CCC=C(F)F` [TRISNORSQUALENE DIFLUOROMETHYLIDENE] gave an IC50 on Squalene monooxygenase [2] of 5.4 µM.

Take `O=C(O[C@@H]1O[C@@H]2COC(=O)c3cc(O)c(O)c(O)c3-c3c(cc(O)c(O)c3O)C(=O)O[C@H]2[C@@H]2OC(=O)c3cc(O)c(O)c(O)c3-c3c(cc(O)c(O)c3O)C(=O)O[C@@H]12)c1cc(O)c(O)c(O)c1`: the IC50 at Squalene monooxygenase [1] was determined as 7 µM.

Take `O=C(O)C[C@@H]1C(=O)O[C@H]2[C@@H]3OC(=O)c4cc(O)c(O)c(O)c4-c4c(cc(O)c(O)c4O)C(=O)OC[C@H]2O[C@@H](OC(=O)c2cc(O)c(O)c(O)c2)[C@@H]3OC(=O)c2cc(O)c(O)c3c2[C@H]1[C@H](O)C(=O)O3` [CHEBULAGIC ACID]: the IC50 at Squalene monooxygenase [1] was determined as 3.2 µM.

On to `CCCCCCCCCCOC(=O)c1cc(O)c(O)c(O)c1-c1c(C(=O)OCCCCCCCCCC)cc(O)c(O)c1O`, for which the IC50 on Squalene monooxygenase [1] amounted to 1.1 µM.

With `CCCCCCCCOC(=O)c1cc(O)c(O)c(O)c1` [OCTYL_GALLATE], the IC50 on Squalene monooxygenase [1] stood at 0.83 µM.

Turning to `O=C(O)C[C@H]1C(=O)O[C@H]2[C@H](OC(=O)c3cc(O)c(O)c(O)c3)[C@@H](OC(=O)c3cc(O)c(O)c4c3[C@H]1[C@H](O)C(=O)O4)[C@H](OC(=O)c1cc(O)c(O)c(O)c1)O[C@@H]2COC(=O)c1cc(O)c(O)c(O)c1` [CHEBULINIC ACID], the IC50 at Squalene monooxygenase [1] came out at 12 µM.

In the case of `CCCCCCCCCCCCCCOC(=O)c1cc(O)c(O)c(O)c1-c1c(C(=O)OCCCCCCCCCCCCCC)cc(O)c(O)c1O`, the IC50 on Squalene monooxygenase [1] came to 1.5 µM.

On to `O=C1O[C@@H]2[C@@H](OC(=O)c3cc(O)c(O)c(O)c3-c3c1cc(O)c(O)c3O)[C@H](O)O[C@@H]1COC(=O)c3cc(O)c(O)c(O)c3-c3c(O)c(O)c4oc(=O)c5c(c(O)c(O)c6oc(=O)c3c4c65)-c3c(cc(O)c(O)c3O)C(=O)O[C@@H]21` [PUNICALAGIN], for which the IC50 on Squalene monooxygenase [1] is 40 µM.

Take `O=C1OC[C@H]2OC(=O)c3cc(O)c(O)c(O)c3-c3c(O)c(O)c(O)c4c3C(=O)O[C@H]([C@H]3OC(=O)c5c-4c(O)c(O)c(O)c5[C@H]3O)[C@@H]2OC(=O)c2cc(O)c(O)c(O)c2-c2c1cc(O)c(O)c2O` [CASTALAGIN]: on Squalene monooxygenase [1], the IC50 is 30 µM.

In the case of `O=C1O[C@H]2[C@@H]3OC(=O)c4cc(O)c(O)c(O)c4-c4c(cc(O)c(O)c4O)C(=O)OC[C@H]2O[C@@H](OC(=O)c2cc(O)c(O)c(O)c2)[C@@H]3OC(=O)c2cc(O)c(O)c3c2[C@@H]2C1=CC(=O)[C@](O)(O3)C2(O)O` [GERANIIN], the IC50 on Squalene monooxygenase [1] is 4.1 µM.
